We go through one compound from publication PMC7582727, “Functional Impact of BeKm-1, a High-Affinity hERG Blocker, on Cardiomyocytes Derived from Human-Induced Pluripotent Stem Cells” (International Journal of Molecular Sciences, 2020).

Positions of bridges follow the written chain, without caps; N, C: chain ends. Residues, ends and D or L forms follow the SMILES beside them.

Series [1] deals with hERG channel. Conditions: cited from earlier work. The text has this: The Kv11.1 channel (hERG) and the corresponding IKr current play a major role in cardiac repolarization (Figure S1). […] Long QT syndrome is one of the cardiac diseases that has been studied in the greatest detail. Type II long QT syndrome is associated with a decrease in IKr currents, as opposed to short QT syndrome, which is associated with increased IKr currents. Type II long QT syndrome is called “inherited” when a mutation in the gene encoding hERG, KCNH2, gives rise to a loss of ... || In this report, we focused on BeKm-1, a toxin that was originally isolated from the venom of Buthus eupeus scorpion. […] According to its 3D structure, the peptide adopts an α-helix and three β-strands organized in a twisted antiparallel β-sheet. By homology with other toxins, BeKm-1 is a member of the γ-KTx subfamily of scorpion toxins.

For series [2], the system named is hiPS-CMs. Briefly: Intracellular Ca^2+ transients in hiPS-CMs (Fluo-4, confocal). The series is classed as cell-based, human. Conditions: 5 nM. The method, then: As Ca^2+ influx abnormalities are likely to be at the root of electrophysiological disorders observed in the presence of BeKm-1, we sought to investigate the effects of this compound on hiPS-CM calcium dynamics. In order to test this, intracellular Ca^2+ transients (CaT) were monitored by confocal microscopy using the Fluo4 Ca^2+-sensitive dye in presence of 5 nM BeKm-1. […] The average interval was raised from 3.3 ± 1.7 sec (n = 8, vehicle) to 4.9 ± 2.2 sec (n = 8, 5 nM BeKm-1) (Figure S4C). In addition, we observed a reduction of CaT amplitude from 1.8 ± 0.2 (n = 8, vehicle) to 0.8 ± 0.2 (n = 8, 5 nM BeKm-1) (Figure S4D). […] The altered shape of the CaT was due to a slower time to peak (1.1 ± 0.1 s with vehicle vs. 2.2 ± 0.4 s with 5 nM BeKm-1, n = 8) (Figure S4E), possibly indicating a slower release from internal stores associated to a reduced entry by VGCC (largely due to the impact of RMP depolarization).
hiPS-CMs: All experiments were performed on the human-induced pluripotent stem cell (hiPSC) clone C2a that has been previously characterized, including cardiac differentiation and electrophysiology data. Cells were expanded on stem cell-qualified matrigel-coated plates (0.05 mg/mL; BD Bioscience, Le Pont de Claix, France) and cultured in StemMACS iPS-BREW XF medium (Miltenyi Biotec, Paris, France). Cells were passaged every […] using Gentle Cell Dissociation Buffer (StemCell Technologies, Grenoble, France). Prior to differentiation, cells were cultured as a monolayer in StemMACS iPS-brew supplemented with 1 × Y-27632 Rho-associated, coiled-coil containing protein kinase (ROCK) inhibitor (StemCell Technologies, Grenoble, France). When hiPSCs reached proper confluence, they were differentiated into cardiomyocytes using previously described « Matrix sandwich » protocol. At day 20 ± 1 of differentiation, beating cardiomyocytes were manually dissected and isolated from non-beating cells. Briefly, cardiomyocytes were washed with phosphate-buffered saline (PBS) and treated with TrypLE Express (10x) (Thermo Fisher Scientific, Illkirch-Graffenstaden, France) for 5 min at 37 °C. The enzyme was inactivated by adding RPMI1640 medium containing 20% (vol/vol) KnockOut Serum Replacement (KSR) (Thermo Fisher Scientific, Illkirch-Graffenstaden, France). The supernatant was removed, and cells were suspended in RPMI1640 medium containing 20% (vol/vol) KSR and ROCK inhibitor. Then, the cells were plated on specific supports suitable for functional assessments.
Calcium transients of hiPS-CMs were evaluated using the Fluo-4 reported dye and a Nikon A1R confocal microscope. Dissociated hiPS-CMs were plated and maintained on µ-slide 8-well IBIDI plates for 12 ± 1 days prior to experiments. On the day of the experiments, cells were loaded for 20 min with 3 µM Fluo-4 AM Ca^2+ indicator (Thermo Fisher Scientific, Illkirch-Graffenstaden, France) in culture medium at 37 °C. Then, to allow complete de-esterification of the Ca^2+ probe, the medium was replaced and cells were re-incubated at 37 °C for another 20 min. All recordings were performed in Tyrode’s solution, cells being placed at 37 °C in an experimental chamber. Confocal microscopy was performed using a Nikon A1R confocal inverted microscope (Nikon Corp, Tokyo, Japan) with a Nikon X60 Plan-Apo numerical aperture 1.4 oil-immersion objective (MicroPICell core facility). Fluo-4 AM was excited using the 488 nm line from an argon laser and fluorescence emission was measured at >505 nm. Images were acquired between 15.5 and 56.4 frames/s in X-Y mode, with a resolution of 1024 × 1024 pixels ([…]).

Series [3] concerns the target human hERG channel (Homo sapiens, UniProt Q12809). The series can be described thus: in vitro. Conditions: human. The method, then:
(§1) Voltage pulses and whole-cell recordings were achieved using the PatchControl384 v1.5.3 software (Nanion Technologies, Munich, Germany) and the Biomek v1.0 interface (Beckman Coulter, Villepinte, France). […] After cell catching, sealing, whole-cell formation, liquid application, recording, and data acquisition were all performed sequentially and automatically. […] A single concentration of peptide was tested on each cell for building the full-inhibition curves.

Series [4] deals with human hERG channel (Kv11.1) (Homo sapiens, UniProt Q12809). Briefly: in vitro. The method, then: as §1
Chain of human hERG channel (Kv11.1) (Q12809 whole entry): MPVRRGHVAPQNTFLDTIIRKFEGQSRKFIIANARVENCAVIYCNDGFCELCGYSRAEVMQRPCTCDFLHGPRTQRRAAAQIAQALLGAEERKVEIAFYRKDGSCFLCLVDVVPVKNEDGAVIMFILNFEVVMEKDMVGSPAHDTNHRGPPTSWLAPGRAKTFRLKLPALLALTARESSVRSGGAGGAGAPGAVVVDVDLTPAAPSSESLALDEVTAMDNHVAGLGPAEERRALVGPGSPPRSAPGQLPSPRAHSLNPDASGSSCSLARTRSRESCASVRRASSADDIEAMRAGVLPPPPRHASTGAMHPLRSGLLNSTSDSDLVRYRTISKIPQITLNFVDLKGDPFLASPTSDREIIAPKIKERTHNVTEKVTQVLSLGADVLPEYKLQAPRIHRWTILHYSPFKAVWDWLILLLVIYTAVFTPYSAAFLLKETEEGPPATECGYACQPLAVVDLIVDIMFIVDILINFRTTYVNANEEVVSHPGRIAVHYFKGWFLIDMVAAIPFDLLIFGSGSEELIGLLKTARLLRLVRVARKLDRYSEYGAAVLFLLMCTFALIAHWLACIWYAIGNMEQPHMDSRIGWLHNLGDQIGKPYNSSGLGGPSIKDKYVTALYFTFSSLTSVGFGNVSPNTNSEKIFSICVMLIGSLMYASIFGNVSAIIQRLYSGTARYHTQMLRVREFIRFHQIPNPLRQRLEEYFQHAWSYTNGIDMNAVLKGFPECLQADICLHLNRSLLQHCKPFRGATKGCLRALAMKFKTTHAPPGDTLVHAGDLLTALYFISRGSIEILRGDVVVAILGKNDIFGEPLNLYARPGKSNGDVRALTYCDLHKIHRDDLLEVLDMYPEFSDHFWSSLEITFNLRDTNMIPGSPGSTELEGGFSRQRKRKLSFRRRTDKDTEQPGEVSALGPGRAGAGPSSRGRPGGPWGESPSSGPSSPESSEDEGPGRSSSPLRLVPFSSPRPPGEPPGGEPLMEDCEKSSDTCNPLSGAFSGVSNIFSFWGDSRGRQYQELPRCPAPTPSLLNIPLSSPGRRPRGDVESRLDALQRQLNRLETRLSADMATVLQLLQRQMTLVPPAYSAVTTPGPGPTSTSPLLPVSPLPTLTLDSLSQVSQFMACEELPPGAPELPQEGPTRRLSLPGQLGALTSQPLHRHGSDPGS

Usually IC50 stands for the concentration that inhibits the measured activity by half.

Chain of human hERG channel (Q12809 whole entry): as above

Regarding `CC[C@H](C)[C@H](NC(=O)[C@H](CC(=O)O)NC(=O)[C@@H](NC(=O)[C@@H]1CCCN1C(=O)[C@@H](N)CCCNC(=N)N)[C@@H](C)O)C(=O)N[C@@H](CCCCN)C(=O)N[C@H]1CSSC[C@@H]2NC(=O)[C@H](CCCNC(=N)N)NC(=O)CNC(=O)[C@H](CC(N)=O)NC(=O)[C@H]([C@@H](C)O)NC(=O)[C@H](CCCCN)NC(=O)CNC(=O)[C@H](Cc3ccccc3)NC(=O)[C@H](CCCNC(=N)N)NC(=O)[C@H](CO)NC(=O)[C@H](CCCCN)NC(=O)[C@@H]3CSSC[C@@H](C(=O)N[C@@H](Cc4ccccc4)C(=O)O)NC(=O)[C@H](CC(=O)O)NC(=O)[C@H](CSSC[C@H](NC(=O)[C@H](CCC(N)=O)NC(=O)[C@H](Cc4ccc(O)cc4)NC(=O)[C@H](CO)NC(=O)[C@H](CCC(=O)O)NC(=O)[C@H](CO)NC1=O)C(=O)N[C@@H](Cc1ccccc1)C(=O)N1CCC[C@H]1C(=O)N[C@@H](C(C)C)C(=O)N3)NC(=O)[C@H](Cc1ccccc1)NC(=O)CNC(=O)[C@H](CC(N)=O)NC(=O)[C@H](C(C)C)NC2=O` [BeKm-1] (H-RPTDIKCSESYQCFPVCKSRFGKTNGRCVNGFCDCF-OH; disulfide 7-28, 13-33, 17-35 (inferred); N-terminus and C-terminus assumed), the “selectivity for hERG” value in series [1] (in cardiomyocytes, no ref at the statement) is recorded as “highly selective for the hERG channel in cardiomyocytes”. Moreover, in series [1] (read-out: IC50, hERG (reported), ref [1],[2],[3],[4]), the concentration for half-maximal inhibition (IC50) was 3.3 to 15.3 nM. Further, the other targets entry in series [1] (ref [1]) is reported as “no other targets have been reported”. In addition, the channel state blocked entry in series [1] (ref [4]) is reported as “blocks the closed state of the channel”. Moreover, the “binding site (face of channel)” value in series [1] (ref [9]) is on record as “preferentially binds the hERG outer mouth”. In series [2] (37 °C, vehicle 3.3 ± 1.7 sec, n = 8, mean ± SEM), the “average interval between CaT” value came out at 4.9 ± 2.2 s. This compound also gave a CaT amplitude in series [2] (F/F0 (Figure S4D), vehicle 1.8 ± 0.2, n = 8, mean ± SEM) of 0.8 ± 0.2. Moreover, the “cytoplasmic Ca^2+ handling (integration of Ca^2+ signals)” value in series [2] (Figure S4G) was “non-significant decrease”. In addition, the “variability of CaT intervals” value in series [2] (Poincaré plot, Figure S4B) is “great variability”. In series [2] (tau of decay, Figure S4F), the “kinetics of the CaT decay phase” value was “no alterations”. The “CaT time to peak” value in series [2] (vehicle 1.1 ± 0.1 s, n = 8, mean ± SEM) is on record as 2.2 ± 0.4 s. This compound gave a half-inhibitory concentration (IC50) at 13 min in series [3] of 1.9 ± 0.3 nM. The “Hill number, hERG current inhibition” value in series [4] (HEK293-hERG, Hill equation fit of dose-response curve) is recorded as 1.9. Also, the “maximal block of hERG currents (plateau)” value in series [4] (at maximally effective doses of the peptide (100 nM)) is 90%.
